{
  "source": "PubChem BioAssay AID2060605",
  "about": "(Molecular Pharmacology Branch, DTP, NCI, 2025);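 further: spheroids exposed to compounds for one week before readout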;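 on viability, T/C: 100% = DMSO vehicle control wells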",
  "test_system": "947758-054-R-J2-PDC spheroid growth, percent test/control",
  "test": "Anticancer human tumor 947758-054-R-J2-PDC patient-derived colon adenocarcinoma cell line growth inhibition [CLK]",
  "details": "spheroids with HUVEC and MSC; for IC50: curve of first compound; for viability, T/C: stronger effect = lower value",
  "outline": "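Multi-cell-type spheroids combined patient-derived tumor cells with HUVEC endothelial cells and human mesenchymal stem cells. Paired agents were dosed in half-log steps down from about clinical Cmax, or from 10 microM where Cmax was unknown.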",
  "data": [
    {"smiles": "C=CC(=O)Nc1cc(Nc2nccc(-c3cn(C)c4ccccc34)n2)c(OC)cc1N(C)CCN(C)C", "note": "+ CN1CCN(c2cc(C(=O)Nc3cc4cc(-c5cnn(C)c5)ccc4cn3)ccn2)CC1", "values": [
      {"measurement": "IC50", "setting": "second compound 0.0316 µM", "value": "> 300", "unit": "nM"},
      {"measurement": "IC50", "setting": "second compound 0.1 µM", "value": "> 300", "unit": "nM"},
      {"measurement": "IC50", "setting": "second compound 0.316 µM", "value": "< 0.949", "unit": "nM"},
      {"measurement": "IC50", "setting": "second compound 1 µM", "value": "< 0.949", "unit": "nM"},
      {"measurement": "IC50", "setting": "second compound 3.16 µM", "value": "< 0.949", "unit": "nM"},
      {"measurement": "IC50", "setting": "second compound 10 µM", "value": "< 0.949", "unit": "nM"},
      {"measurement": "viability, T/C", "setting": "second compound 0.0316 µM, first compound 0.000949 µM", "value": 102, "unit": "%"},
      {"measurement": "viability, T/C", "setting": "second compound 0.0316 µM, first compound 0.003 µM", "value": 111, "unit": "%"},
      {"measurement": "viability, T/C", "setting": "second compound 0.0316 µM, first compound 0.00949 µM", "value": 100, "unit": "%"},
      {"measurement": "viability, T/C", "setting": "second compound 0.0316 µM, first compound 0.03 µM", "value": 81.4, "unit": "%"},
      {"measurement": "viability, T/C", "setting": "second compound 0.0316 µM, first compound 0.0949 µM", "value": 116, "unit": "%"},
      {"measurement": "viability, T/C", "setting": "second compound 0.0316 µM, first compound 0.3 µM", "value": 137, "unit": "%"},
      {"measurement": "viability, T/C", "setting": "second compound 0.1 µM, first compound 0.000949 µM", "value": 157, "unit": "%"},
      {"measurement": "viability, T/C", "setting": "second compound 0.1 µM, first compound 0.003 µM", "value": 163, "unit": "%"},
      {"measurement": "viability, T/C", "setting": "second compound 0.1 µM, first compound 0.00949 µM", "value": 152, "unit": "%"},
      {"measurement": "viability, T/C", "setting": "second compound 0.1 µM, first compound 0.03 µM", "value": 179, "unit": "%"},
      {"measurement": "viability, T/C", "setting": "second compound 0.1 µM, first compound 0.0949 µM", "value": 120, "unit": "%"},
      {"measurement": "viability, T/C", "setting": "second compound 0.1 µM, first compound 0.3 µM", "value": 106, "unit": "%"},
      {"measurement": "viability, T/C", "setting": "second compound 0.316 µM, first compound 0.000949 µM", "value": 4.91, "unit": "%"},
      {"measurement": "viability, T/C", "setting": "second compound 0.316 µM, first compound 0.003 µM", "value": 4.6, "unit": "%"},
      {"measurement": "viability, T/C", "setting": "second compound 0.316 µM, first compound 0.00949 µM", "value": 2.55, "unit": "%"},
      {"measurement": "viability, T/C", "setting": "second compound 0.316 µM, first compound 0.03 µM", "value": 3.23, "unit": "%"},
      {"measurement": "viability, T/C", "setting": "second compound 0.316 µM, first compound 0.0949 µM", "value": 2.33, "unit": "%"},
      {"measurement": "viability, T/C", "setting": "second compound 0.316 µM, first compound 0.3 µM", "value": 3.21, "unit": "%"},
      {"measurement": "viability, T/C", "setting": "second compound 1 µM, first compound 0.000949 µM", "value": 0.14, "unit": "%"},
      {"measurement": "viability, T/C", "setting": "second compound 1 µM, first compound 0.003 µM", "value": 0.99, "unit": "%"},
      {"measurement": "viability, T/C", "setting": "second compound 1 µM, first compound 0.00949 µM", "value": 0.15, "unit": "%"},
      {"measurement": "viability, T/C", "setting": "second compound 1 µM, first compound 0.03 µM", "value": 0.13, "unit": "%"},
      {"measurement": "viability, T/C", "setting": "second compound 1 µM, first compound 0.0949 µM", "value": 0.11, "unit": "%"},
      {"measurement": "viability, T/C", "setting": "second compound 1 µM, first compound 0.3 µM", "value": 0.14, "unit": "%"},
      {"measurement": "viability, T/C", "setting": "second compound 3.16 µM, first compound 0.000949 µM", "value": 0.4, "unit": "%"},
      {"measurement": "viability, T/C", "setting": "second compound 3.16 µM, first compound 0.003 µM", "value": 1.42, "unit": "%"},
      {"measurement": "viability, T/C", "setting": "second compound 3.16 µM, first compound 0.00949 µM", "value": 1.1, "unit": "%"},
      {"measurement": "viability, T/C", "setting": "second compound 3.16 µM, first compound 0.03 µM", "value": 0.23, "unit": "%"},
      {"measurement": "viability, T/C", "setting": "second compound 3.16 µM, first compound 0.0949 µM", "value": 2.07, "unit": "%"},
      {"measurement": "viability, T/C", "setting": "second compound 3.16 µM, first compound 0.3 µM", "value": 1.52, "unit": "%"},
      {"measurement": "viability, T/C", "setting": "second compound 10 µM, first compound 0.000949 µM", "value": 0.82, "unit": "%"},
      {"measurement": "viability, T/C", "setting": "second compound 10 µM, first compound 0.003 µM", "value": 0.35, "unit": "%"},
      {"measurement": "viability, T/C", "setting": "second compound 10 µM, first compound 0.00949 µM", "value": 1, "unit": "%"},
      {"measurement": "viability, T/C", "setting": "second compound 10 µM, first compound 0.03 µM", "value": 1.25, "unit": "%"},
      {"measurement": "viability, T/C", "setting": "second compound 10 µM, first compound 0.0949 µM", "value": 0.32, "unit": "%"},
      {"measurement": "viability, T/C", "setting": "second compound 10 µM, first compound 0.3 µM", "value": 0.26, "unit": "%"}
    ]},
    {"smiles": "Nc1ccccc1NC(=O)c1ccc(CNC(=O)OCc2cccnc2)cc1", "note": "+ CN1CCN(c2cc(C(=O)Nc3cc4cc(-c5cnn(C)c5)ccc4cn3)ccn2)CC1", "values": [
      {"measurement": "IC50", "setting": "second compound 0.0316 µM", "value": 4620, "unit": "nM"},
      {"measurement": "IC50", "setting": "second compound 0.1 µM", "value": 2700, "unit": "nM"},
      {"measurement": "IC50", "setting": "second compound 0.316 µM", "value": "< 31.6", "unit": "nM"},
      {"measurement": "IC50", "setting": "second compound 1 µM", "value": "< 31.6", "unit": "nM"},
      {"measurement": "IC50", "setting": "second compound 3.16 µM", "value": "< 31.6", "unit": "nM"},
      {"measurement": "IC50", "setting": "second compound 10 µM", "value": "< 31.6", "unit": "nM"},
      {"measurement": "viability, T/C", "setting": "second compound 0.0316 µM, first compound 0.0316 µM", "value": 133, "unit": "%"},
      {"measurement": "viability, T/C", "setting": "second compound 0.0316 µM, first compound 0.1 µM", "value": 136, "unit": "%"},
      {"measurement": "viability, T/C", "setting": "second compound 0.0316 µM, first compound 0.316 µM", "value": 153, "unit": "%"},
      {"measurement": "viability, T/C", "setting": "second compound 0.0316 µM, first compound 1 µM", "value": 166, "unit": "%"},
      {"measurement": "viability, T/C", "setting": "second compound 0.0316 µM, first compound 3.16 µM", "value": 70.3, "unit": "%"},
      {"measurement": "viability, T/C", "setting": "second compound 0.0316 µM, first compound 10 µM", "value": 8.87, "unit": "%"},
      {"measurement": "viability, T/C", "setting": "second compound 0.1 µM, first compound 0.0316 µM", "value": 188, "unit": "%"},
      {"measurement": "viability, T/C", "setting": "second compound 0.1 µM, first compound 0.1 µM", "value": 178, "unit": "%"},
      {"measurement": "viability, T/C", "setting": "second compound 0.1 µM, first compound 0.316 µM", "value": 190, "unit": "%"},
      {"measurement": "viability, T/C", "setting": "second compound 0.1 µM, first compound 1 µM", "value": 129, "unit": "%"},
      {"measurement": "viability, T/C", "setting": "second compound 0.1 µM, first compound 3.16 µM", "value": 39.4, "unit": "%"},
      {"measurement": "viability, T/C", "setting": "second compound 0.1 µM, first compound 10 µM", "value": 4.71, "unit": "%"},
      {"measurement": "viability, T/C", "setting": "second compound 0.316 µM, first compound 0.0316 µM", "value": 2.88, "unit": "%"},
      {"measurement": "viability, T/C", "setting": "second compound 0.316 µM, first compound 0.1 µM", "value": 6, "unit": "%"},
      {"measurement": "viability, T/C", "setting": "second compound 0.316 µM, first compound 0.316 µM", "value": 2.2, "unit": "%"},
      {"measurement": "viability, T/C", "setting": "second compound 0.316 µM, first compound 1 µM", "value": 0.82, "unit": "%"},
      {"measurement": "viability, T/C", "setting": "second compound 0.316 µM, first compound 3.16 µM", "value": 1.3, "unit": "%"},
      {"measurement": "viability, T/C", "setting": "second compound 0.316 µM, first compound 10 µM", "value": 0.07, "unit": "%"},
      {"measurement": "viability, T/C", "setting": "second compound 1 µM, first compound 0.0316 µM", "value": 0.15, "unit": "%"},
      {"measurement": "viability, T/C", "setting": "second compound 1 µM, first compound 0.1 µM", "value": 0.18, "unit": "%"},
      {"measurement": "viability, T/C", "setting": "second compound 1 µM, first compound 0.316 µM", "value": 0.2, "unit": "%"},
      {"measurement": "viability, T/C", "setting": "second compound 1 µM, first compound 1 µM", "value": 0.12, "unit": "%"},
      {"measurement": "viability, T/C", "setting": "second compound 1 µM, first compound 3.16 µM", "value": 0.57, "unit": "%"},
      {"measurement": "viability, T/C", "setting": "second compound 1 µM, first compound 10 µM", "value": 2.05, "unit": "%"},
      {"measurement": "viability, T/C", "setting": "second compound 3.16 µM, first compound 0.0316 µM", "value": 0.21, "unit": "%"},
      {"measurement": "viability, T/C", "setting": "second compound 3.16 µM, first compound 0.1 µM", "value": 0.63, "unit": "%"},
      {"measurement": "viability, T/C", "setting": "second compound 3.16 µM, first compound 0.316 µM", "value": 0.29, "unit": "%"},
      {"measurement": "viability, T/C", "setting": "second compound 3.16 µM, first compound 1 µM", "value": 0.28, "unit": "%"},
      {"measurement": "viability, T/C", "setting": "second compound 3.16 µM, first compound 3.16 µM", "value": 0.32, "unit": "%"},
      {"measurement": "viability, T/C", "setting": "second compound 3.16 µM, first compound 10 µM", "value": 2.87, "unit": "%"},
      {"measurement": "viability, T/C", "setting": "second compound 10 µM, first compound 0.0316 µM", "value": 0.31, "unit": "%"},
      {"measurement": "viability, T/C", "setting": "second compound 10 µM, first compound 0.1 µM", "value": 0.32, "unit": "%"},
      {"measurement": "viability, T/C", "setting": "second compound 10 µM, first compound 0.316 µM", "value": 1.85, "unit": "%"},
      {"measurement": "viability, T/C", "setting": "second compound 10 µM, first compound 1 µM", "value": 0.43, "unit": "%"},
      {"measurement": "viability, T/C", "setting": "second compound 10 µM, first compound 3.16 µM", "value": 0.45, "unit": "%"},
      {"measurement": "viability, T/C", "setting": "second compound 10 µM, first compound 10 µM", "value": 2.2, "unit": "%"}
    ]}
  ]
}
